Test [1] has as its target T1, RhsP2tox (Pseudomonas aeruginosa, UniProt A0A0H2Z8A2).
T1 construct: gene PA14_43100; N-terminal His tag
It counts as binding.

The target of test [2] is T2, RhsP2tox (Pseudomonas aeruginosa, UniProt A0A0H2Z8A2, E1576Q).
T2 construct: gene PA14_43100
In words: biochemical.

Usually Kd stands for the concentration at which binding is half-saturated. The low end stands for a tighter complex, the high end for a looser complex.

Consider `NC(=O)c1ccc[n+]([C@@H]2O[C@H](COP(=O)(O)OP(=O)(O)OC[C@H]3O[C@@H](n4cnc5c(N)ncnc54)[C@H](O)[C@@H]3O)[C@@H](O)[C@H]2O)c1` [NAD^+], for which the Kd in test [1] was 172 ± 25 µM; in test [2], 130 ± 38 µM.
